{"source": "patent US11400082B2", "about": "“Methods of treating elevated plasma cholesterol” (Montréal Heart Institute, priority 2017, dated 2022)", "key": {"LDLR protein [1]": {"test_system": "LDLR protein", "assay": "Western blot analysis, relative quantification of LDLR protein levels", "assay_type": "cell-based, human", "details": "overnight, hepatoma cells (HepG2, FIG. 13), normalized to actin, vehicle (DMSO) = 1", "experimental": "(§1) For sterol-regulated conditions, HepG2 cells were incubated in 5% LPDS, 50 μM mevastatin, and 50 μM mevalonolactone in the absence (-sterols) or presence of 1 μg/ml 25-hydroxycholesterol and 10 μg/ml cholesterol (+sterols). For inhibitor treatments HepG2 cells were treated with DMSO or 10 μM compounds 2 in combination with U0126 (25 μM, catalog no. 9903, Cell Signaling Technology), Cycloheximide (CHX; 20 μg/ml, catalog no. C7698, Sigma-Aldrich), PD153035 (20 μM, catalog no. 14879, Cayman Chemical), bisindolylmaleimide I (BIM; 10 μM, catalog no. 13298, Cayman Chemical), H-89 (10 μM, catalog no. 10010556, Cayman Chemical), Dorsomorphin (5 μM, catalog no. 11967, Cayman Chemical) or 5-Azacytidine (10 μM, catalog no. A2385, Sigma-Aldrich).\nTreated cells from Example 28 were washed three times in phosphate-buffered saline (PBS) and lysed in radioimmune precipitation assay buffer (50 mM Tris/HCl, pH 8.0, 1% (v/v) Nonidet P-40, 0.5% sodium deoxycholate, 150 mM NaCl, and 0.1% (v/v) SDS) supplemented with a complete protease inhibitor mixture (catalog no. 11 697 498 001, Roche Applied Science). Proteins were separated by 8% SDS polyacrylamide gel electrophoresis, blotted on nitrocellulose membranes (Bio-Rad), and blocked for 1 h in Tris-buffered saline-Tween 20 (TBS-T; 50 mM Tris-HCl, pH 7.5, 150 mM NaCl, 0.1% Tween 20) containing 5% nonfat dry milk. Membranes were then incubated overnight in TBS-T supplemented with 1% nonfat milk and the indicated antibodies; goat anti-human LDLR (1:1000; catalog no. AF2148, R&D Systems), rabbit anti-actin (1:5000; catalog no. A2066, Sigma-Aldrich). Appropriate HRP-conjugated secondary antibodies (1:10,000; GE healthcare) were used for detection using the Western Lightning Ultra chemiluminescence kit (catalog no. NEI112001EA, PerkinElmer Life Sciences) and BioFlex EC Films (catalog no. CLEC810, InterScience). Unsaturated films were numerized using the high resolution CanoScan 9000F scanner and corresponding bands were quantified using the ImageJ software (NIH). Relative quantification of LDLR protein levels were normalized to that of actin and compared to vehicle (DMSO) herein determined as 1."}, "LDLR protein [2]": {"test_system": "LDLR protein", "assay_type": "cell-based, human", "experimental": "as §1\nTreated cells from Example 28 were washed three times in phosphate-buffered saline (PBS) and lysed in radioimmune precipitation assay buffer (50 mM Tris/HCl, pH 8.0, 1% (v/v) Nonidet P-40, 0.5% sodium deoxycholate, 150 mM NaCl, and 0.1% (v/v) SDS) supplemented with a complete protease inhibitor mixture (catalog no. 11 697 498 001, Roche Applied Science). […] Unsaturated films were numerized using the high resolution CanoScan 9000F scanner and corresponding bands were quantified using the ImageJ software (NIH). Relative quantification of LDLR protein levels were normalized to that of actin and compared to vehicle (DMSO) herein determined as 1."}, "[3]": {"assay": "Cell viability assay (MTT)", "assay_type": "cell-based", "details": "human; overnight incubation, viability relative to DMSO", "experimental": "Following incubation, media was replaced and cells incubated for 4 h with 100 μL of phenol red-free DMEM containing 0.5 mg/mL of MTT (3-[4,5-dimethylthiazol-2-yl]-2,5-diphenyltetrazolium bromide; thiazolyl blue; catalog no. M5655, Sigma-Aldrich). Afterwards, media was removed and converted dye solubilized with 100 μL acidic isopropanol (0.06 N) and absorbance measured at a wavelength of 570 nm with background subtraction at 650 nm. Arbitrary units of cell viability of a given example were determined relative to equal volume of DMSO (vehicle) for each concentration used."}}, "note": "Several values for one entry are separate records, joined by “and”; a condition that tells them apart may be missing. Equal entries are not always repeated. Where two headings read alike, the source gives them in different places."}
{"smiles": "Cc1ncc(COc2ccc(F)cc2)c2c1OC(C)(C)OC2", "note": "[Compound 26, 5-((4-fluorophenoxy)methyl)-2,2-dimethyl-4H-[1,3]dioxino[4,5-c]picoline]", "values": [{"measurement": "LDLR Fold Change 10 nM", "setting": "LDLR protein [1]", "value": 1}, {"measurement": "LDLR Fold Change 10 μM", "setting": "LDLR protein [1]", "value": 1.5}]}
{"smiles": "COC(=O)c1ncc(COCc2ccc(OC)cc2)c2c1OC(C)(C)OC2", "note": "[Compound 10, methyl 5-((4-methoxybenzyloxy)methyl)-2,2-dimethyl-4H-[1,3] dioxino[4,5-c]pyridine-8-carboxylate]", "values": [{"measurement": "LDLR Fold Change 10 nM", "setting": "LDLR protein [1]", "value": 1.7}, {"measurement": "LDLR Fold Change 10 μM", "setting": "LDLR protein [1]", "value": 1.2}]}
{"smiles": "C[C@@H]1C[C@@H]([C@H](O)CC2CC(=O)NC(=O)C2)C(=O)[C@@H](C)C1", "note": "[CHX, Cycloheximide]", "values": [{"measurement": "effect of combined inhibitor on increase of LDLR by Compound 2", "setting": "LDLR protein [2]; HepG2 cells, 10 μM Compound 2 in combination with inhibitor (U0126 25 μM, CHX 20 μg/ml), FIG. 19", "value": "block increase of LDLR by Compound 2"}]}
{"smiles": "COc1ccc(COCc2cnc(C(=O)O)c(O)c2C)cc1", "note": "[Compound 7, 5-(4-methoxy-benzyloxymethyl)-3-hydroxy-4-methyl-pyridine-2-carboxylic acid]", "values": [{"measurement": "LDLR Fold Change 10 nM", "setting": "LDLR protein [1]", "value": 1.7}, {"measurement": "LDLR Fold Change 10 μM", "setting": "LDLR protein [1]", "value": "1.9 and 2-3"}]}
{"smiles": "O=C(NO)c1ncc(CNc2ccc(F)cc2)c(CO)c1O", "note": "[Compound 1, 5-[(4-fluoro-phenylamino)-methyl]-3-hydroxy-4-hydroxymethyl-pyridine-2-carboxylic acid hydroxyamide]", "values": [{"measurement": "CC50", "setting": "[3]", "value": 120, "unit": "µM"}, {"measurement": "LDLR Fold Change 10 μM", "setting": "LDLR protein [1]", "value": 6.9}]}
{"smiles": "COc1ccc(COCc2cnc(C)c3c2COC(C)(C)O3)cc1", "note": "[Compound 9, 5-((4-methoxybenzyloxy)methyl)-2,2,8-trimethyl-4H-[1,3]dioxino[4,5-c]pyridine]", "values": [{"measurement": "LDLR Fold Change 10 μM", "setting": "LDLR protein [1]", "value": 1.4}]}
{"smiles": "Cc1ncc(COc2ccc(F)cc2)c(CO)c1O", "note": "[Compound 27, 5-((4-fluorophenoxy)methyl)-3-hydroxy-4-(hydroxymethyl)picoline]", "values": [{"measurement": "LDLR Fold Change 10 nM", "setting": "LDLR protein [1]", "value": 0.6}, {"measurement": "LDLR Fold Change 10 μM", "setting": "LDLR protein [1]", "value": 1.2}]}
{"smiles": "COc1c(C(=O)NO)ncc(C(=O)NCc2ccc(F)cc2)c1CO", "note": "[Compound 19, 4-hydroxymethyl-3-methoxy-pyridine-2,5-dicarboxylic acid 5-(4-fluoro-benzylamide) 2-hydroxyamide]", "values": [{"measurement": "CC50", "setting": "[3]", "value": 6.6, "unit": "µM"}]}
{"smiles": "O=C(NO)c1ncc(COc2ccc(F)c(Cl)c2)c(CO)c1O", "note": "[Compound 3, 5-(3-chloro-4-fluoro-phenoxymethyl)-3-hydroxy-4-hydroxymethyl-pyridine-2-carboxylic acid hydroxyamide]", "values": [{"measurement": "CC50", "setting": "[3]", "value": 11, "unit": "µM"}, {"measurement": "LDLR Fold Change 10 μM", "setting": "LDLR protein [1]", "value": 5.6}]}
{"smiles": "O=C(NO)c1ncc(CCc2ccc(F)cc2)c(CO)c1O", "note": "[Compound 6, 5-[2-(4-fluoro-phenyl)-ethyl]-3-hydroxy-4-hydroxymethyl-pyridine-2-carboxylic acid hydroxamide]", "values": [{"measurement": "CC50", "setting": "[3]", "value": 39, "unit": "µM"}, {"measurement": "LDLR Fold Change 10 nM", "setting": "LDLR protein [1]", "value": 1.5}, {"measurement": "LDLR Fold Change 10 μM", "setting": "LDLR protein [1]", "value": 2.3}]}
{"smiles": "N#CC(=C(/N)Sc1ccccc1N)/C(C#N)=C(\\N)Sc1ccccc1N", "note": "[Compound U0126, U0126]", "values": [{"measurement": "effect of combined inhibitor on increase of LDLR by Compound 2", "setting": "LDLR protein [2]", "value": "block increase of LDLR by Compound 2"}]}
{"smiles": "CC1(C)OCc2c(CNCc3ccc(F)c(Cl)c3)cnc(C(=O)NO)c2O1.Cl", "note": "[Compound 5, 5-{(1-3-chloro-4-fluoro-phenyl)aminomethyl} 2,2-dimethyl-4H-[1,3]dioxino[4,5-c]pyridine-8-carboxylic acid hydroxamide]", "values": [{"measurement": "LDLR Fold Change 10 μM", "setting": "LDLR protein [1]", "value": 2.4}]}
{"smiles": "COC(=O)c1ncc(COCc2ccc(OC)cc2)c(C)c1O", "note": "[Compound 8, 5-(4-methoxy-benzyloxymethyl)-3-hydroxy-4-methyl-pyridine-2-carboxylic acid methyl ester]", "values": [{"measurement": "LDLR Fold Change 10 nM", "setting": "LDLR protein [1]", "value": 1.7}, {"measurement": "LDLR Fold Change 10 μM", "setting": "LDLR protein [1]", "value": 1.7}]}
{"smiles": "COC(=O)c1ncc(C(=O)NCc2ccc(F)c(Cl)c2)c2c1OC(C)(C)OC2", "note": "[Compound 25, 2,2-dimethyl-4H-[1,3]dioxino[4,5-c]pyridine-5,8-dicarboxylic acid 5-(3-chloro-4-fluoro-benzylamide)-8-(methyl ester)]", "values": [{"measurement": "LDLR Fold Change 10 μM", "setting": "LDLR protein [1]", "value": 1.9}]}
{"smiles": "O=C(NCc1ccc(F)c(Cl)c1)c1cnc(C(=O)NO)c(O)c1CO", "note": "[Compound 4, N^5-(3-chloro-4-fluorobenzyl)-N^2,3-dihydroxy-4-(hydroxymethyl)pyridine-2,5-dicarboxamide]", "values": [{"measurement": "LDLR Fold Change 10 μM", "setting": "LDLR protein [1]", "value": 2.7}]}
